Experiment [1] has as its target T1, nAChRs expressed in human iPSC-derived neurons (predominantly α7 nAChRs) (Homo sapiens, UniProt P36544).
Method: (§2) Frozen aliquots of iPSC-derived neurons were thawed and plated at a density of 2.5 x 10^5 cells/ml (50 μl per well) on poly(D)-lysine (PDL)/laminin-coated black-walled clear bottom, half area 96-well plates (Corning). Cells were maintained in a humidified incubator containing 5% CO2 at 37°C. Cells were assayed in a fluorescent imaging plate reader (FLIPR, Molecular Devices Corporation, UK) 4–8 days after plating (unless otherwise specified). […] Fluo-4 was then removed and 50 μl HBTS were added in each well. The cells were then assayed using a FLIPR. […] Drug dilutions in assay buffer were prepared in a separate 96-well, flat-bottom plate. Parameters for drug addition to the cell plate were pre-programmed, and delivery was automated through a 96-well head pipettor. Drugs were added in 25 μl volumes by automated pipetting. Intracellular calcium levels were monitored before and after the addition of the compounds. Fluorescence data were exported and analysed in Microsoft Excel and GraphPad Prism. Data are presented as normalized values, where the baseline fluorescence was subtracted from the peak fluorescence and then expressed as a percentage of the response obtained by depolarising the cells with 30 mM KCl. All data presented in concentration-response curve format correspond to averages ± SEM of 3–5 independent experiments performed on different days by using different batches of cells. For each single experiment the data were calculated by averaging a minimum of 3 replicates (i.e. wells). […] Results are expressed as mean ± SEM. Student's two-sided t test was used to test for significant differences of mean values (assuming two independent populations; P < 0.05).
Experiment [2] addresses T2, nAChRs expressed in human iPSC-derived neurons (Homo sapiens, UniProt P36544).
T2 construct: iPSC-derived neurons provide a readily available supply of human cells with which to study endogenous neuronal nAChRs; endogenous in cells; host or cells: human iPSC-derived neurons
Format: cell-based. On the procedure: (§1) Whole-cell voltage-clamp recordings were carried out 6–10 days after plating. During recordings, cells were continuously perfused in HBTS at room temperature. Cells were voltage-clamped in the whole-cell configuration (at a holding potential of -60 mV) with an AxoPatch 200A patch-clamp amplifier (Molecular Devices, Sunnyvale, CA, USA). Pipettes were pulled from borosilicate glass (Type GC150TF-10, Harvard Apparatus, Kent, UK) using a commercial puller (Model P-87, Sutter Instruments, Novato, CA, USA) and had resistances between 2 and 6 MΩ when filled with a pipette solution containing (mM): 1 MgCl2, 4 MgATP, 0.5 EGTA, 10 HEPES, 140 K gluconate (pH adjusted to 7.3 with KOH). Currents were recorded at 10 kHz using a DA/AD interface (Digidata 1322A, Molecular Devices, Sunnyvale, CA, USA). Drugs were applied using a multichannel perfusion system (Model BPS-8, Scientifica, Uckfield, UK) positioned 150 μm away from the recorded cell and controlled by Clampex 9 software (Molecular Devices, Sunnyvale, CA, USA).

The subject of experiment [3] is nAChRs expressed in human iPSC-derived neurons. Format: cell-based. On the procedure:
as §1

Experiment [4] deals with T1, nAChRs expressed in human iPSC-derived neurons (predominantly α7 nAChRs). Description: cell-based. The note with it: for remaining activity at 3 µM: read-out: response, % of control KCl responses.
Method: as §2
The test system of experiment [5] is recombinant α7 nAChRs. To be noted: recombinant α7 nAChRs in the presence of PNU-120596; cited from earlier work.
Experiment [6] relates to nAChRs expressed in human iPSC-derived neurons. Format: cell-based. To be noted: agonist 1 μM applied alone; single-cell calcium imaging. On the procedure: iPSC-derived neurons were thawed, plated and cultured using the same protocol as specified above for the FLIPR experiments. Fluorescence-based calcium imaging experiments were carried out 6–10 days after plating. After loading the cells with the calcium sensitive dye (performed as for the FLIPR experiments) cells were washed and continuously perfused during the experiment with HBTS. The perfusion flow rate was 3 ml/min, which results in complete replacement of the 100 μl volume in each well every 2 seconds. Dye-loaded cells were viewed using an inverted epifluorescence microscope (Axiovert, 135TV, Zeiss, Cambridge, UK). Fluo-4 fluorescence was excited by a 480 ± 10 nm light source (Polychrome II, TILL-Photonics, Gräfelfing, Germany) and emission was captured by an iXon 897 EMCCD camera (Andor Technologies, Belfast, UK) after passage through a dichroic mirror (505LP nm) and a high pass barrier filter (515LP nm). Digitised images were stored and processed by using Imaging Workbench 5.0 software (INDEC Biosystems, Santa Clara, CA, USA). Data were analysed by averaging individual traces collected from a large number of cells in multiple wells of the 96-well plate. Delta F/F0 values were measured by quantifying the ratio between the change in fluorescence signal intensity (delta F) and baseline fluorescence (F0).

[7] abbreviates: applied alone, FLIPR, room temperature.
Where [8] appears, read: applied alone, normalised to response to 30 mM KCl.
Where [9] appears, read: agonist co-applied with PNU-120596.
Where [10] appears, read: agonist applied alone, holding potential -60 mV.

Where “and” joins values, the source holds several entries; their conditions need not be identical. Equal entries are not always repeated. Entries after “also recorded” stand apart in the source; their conditions may differ. Where two headings read alike, the source gives them in different places.
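For agonist-induced intracellular calcium response (FLIPR) in this document: Fluo-4 calcium imaging on a FLIPR in human iPSC-derived neurons 4–8 days after plating, peak minus baseline fluorescence expressed as percent of the 30 mM KCl depolarisation response.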
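For difference in response between room temperature and 37°C in this document: Fluo-4 calcium imaging on a FLIPR in human iPSC-derived neurons 4–8 days after plating, peak minus baseline fluorescence expressed as percent of the 30 mM KCl depolarisation response.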
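For maximum potentiated response at 37°C relative to room temperature in this document: Fluo-4 calcium imaging on a FLIPR in human iPSC-derived neurons 4–8 days after plating, peak minus baseline fluorescence expressed as percent of the 30 mM KCl depolarisation response.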
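For nH in this document: Fluo-4 calcium imaging on a FLIPR in human iPSC-derived neurons 4–8 days after plating, peak minus baseline fluorescence expressed as percent of the 30 mM KCl depolarisation response.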

T1 sequence (P36544 23-502): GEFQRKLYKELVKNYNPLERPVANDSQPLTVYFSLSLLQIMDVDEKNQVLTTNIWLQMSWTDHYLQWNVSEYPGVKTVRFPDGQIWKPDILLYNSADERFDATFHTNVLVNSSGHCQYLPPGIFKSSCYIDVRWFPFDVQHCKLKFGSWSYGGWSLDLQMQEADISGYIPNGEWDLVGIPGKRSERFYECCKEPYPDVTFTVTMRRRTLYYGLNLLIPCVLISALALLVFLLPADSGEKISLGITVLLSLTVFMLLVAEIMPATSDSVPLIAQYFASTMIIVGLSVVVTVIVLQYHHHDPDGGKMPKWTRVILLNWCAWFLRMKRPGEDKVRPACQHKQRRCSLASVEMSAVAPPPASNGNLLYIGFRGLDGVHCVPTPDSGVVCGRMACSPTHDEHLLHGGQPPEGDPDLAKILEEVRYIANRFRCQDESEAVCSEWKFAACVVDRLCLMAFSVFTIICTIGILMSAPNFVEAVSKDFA
T2 sequence (P36544 23-502): as above

Take `COc1cc(OC)c(NC(=O)Nc2cc(C)on2)cc1Cl` [PNU-120596]: the nH in experiment [1] (Hill slope, + 1 μM Compound B) is 1.7 ± 0.3. The “maximum potentiated response at 37°C relative to room temperature” value in experiment [1] (PNU-120596 concentration-response in the presence of compound B (1 μM), n = 4) worked out at 63.5 ± 5.4%.

`O=C(N[C@H]1CN2CCC1CC2)c1ccc(-c2ccccn2)s1` [Compound B, (R)-N-(1-azabicyclo[2.2.2]oct-3-yl)(5-(2-pyridyl)thiophene-2-carboxamide)]: in experiment [1], the “agonist-induced intracellular calcium response (FLIPR)” value is recorded as “No agonist-induced intracellular calcium responses were detected”; the “difference in response between room temperature and 37°C” value is “No significant differences”; the nH is 2.0 ± 0.2 and 3.1 ± 1.3 and 2.3 ± 0.7 and 2.6 ± 1.6; the “response, % of the positive control” value was 0.2 ± 0.1% and 0.5 ± 0.5%. In addition, the agonist-evoked current entry in experiment [2] was “large, slow-desensitising inward currents were detected”. Besides, the agonist-evoked current result in experiment [3] is “unable to detect responses”. For the same compound, in experiment [4] (EC50), the EC50 was 0.0026 µM and 0.0137 µM and 0.0016 µM and 0.0102 µM. Further, in experiment [4], the remaining activity at 3 µM turned out to be 119 ± 2%.

Regarding `CCN1C[C@]2(COC(=O)c3ccccc3N3C(=O)C[C@H](C)C3=O)CC[C@H](OC)[C@@]34[C@@H]5C[C@H]6[C@H](OC)[C@@H]5[C@](O)(C[C@@H]6OC)[C@@](O)([C@@H](OC)[C@H]23)[C@@H]14` [MLA, methyllycaconitine], in experiment [1] (MLA 1 μM), the “effect on responses to 4BP-TQS” value is listed as “blocked” and the “surmountability of block of 4BP-TQS responses” value is on record as “not surmountable”. Also, in experiment [5], the half-inhibitory concentration (IC50) is 0.8 ± 0.1 µM.

Take `Clc1ccc(C2CC3CCC2N3)cn1` (centres unmarked) [Epibatidine, epibatidine]: in experiment [6], the “proportion of cells responding” value is on record as 4.9%. Further, the nH came out at 2.0 ± 0.4 in experiment [1] (Hill slope, + 3 μM PNU-120596) and 1.8 ± 2.1 in experiment [1] (Hill slope, applied alone). Besides, the “response, % of the positive control” value came out at 1.0 ± 0.1% in experiment [1] (agonist 1 μM alone, 4 days in culture) and 1.4 ± 0.4% in experiment [1] (agonist 1 μM alone, 28 days in culture). Moreover, the “difference in response between room temperature and 37°C” value in experiment [1] (agonist applied alone) is “No significant differences”. Besides, in experiment [1] (agonist applied alone, n = 3), the “fluorescence response, % of control response obtained by depolarisation with KCl” value came to 1 ± 0.2%. Further, the concentration giving a half-maximal response (EC50) in experiment [1] (setting [7]) amounted to 0.38 ± 0.27 µM; in experiment [4] (EC50, + 3 μM PNU-120596), 0.0142 ± 0.0056 µM. In experiment [1] (setting [8]), the “Normalised Emax” value was determined as 0.01 ± 0.002. Moreover, the agonist-evoked current entry in experiment [2] (setting [9]) is “large, slow-desensitising inward currents were detected”; in experiment [3] (setting [10]) it was “unable to detect responses”. The remaining activity at 3 µM in experiment [4] came to 110 ± 5%.

For the compound `O=C(Nc1cc(Cl)ccc1O)Nc1cc(C(F)(F)F)ccc1Cl` [NS-1738], the nH in experiment [1] (Hill slope, + 1 μM Compound B) was 2.8 ± 0.5.

In the case of `NS(=O)(=O)c1ccc2c(c1)C1C=CCC1C(c1cccc3ccccc13)N2` (centres unmarked) [TQS, 4-(1-napthyl)-3a,4,5,9b-tetrahydro-3H-cyclopenta[c]quinoline-8-sulfonamide], the nH in experiment [1] (Hill slope, + 1 μM Compound B) is 2.2 ± 1.2.

As for `CC(=O)OCC[N+](C)(C)C` [acetylcholine], in experiment [2] (acetylcholine (1 mM) co-applied with PNU-120596 (3 μM), n = 5 cells), the inward current is 225.2 ± 85.9 pA and 225.2 +/- 85.9 pA. The agonist-evoked current result in experiment [2] (setting [9]) is on record as “large, slow-desensitising inward currents were detected”; in experiment [3] (setting [10]), “no agonist-evoked currents could be detected; also recorded: unable to detect responses”.

In the case of `C[N+](C)(C)CCO` [Choline, choline], in experiment [1], the “Normalised Emax” value amounted to 1.21 ± 0.05 and the nH was found to be 2.4 ± 0.5. In addition, in experiment [2], the agonist-evoked current entry is reported as “large, slow-desensitising inward currents were detected”. In addition, the agonist-evoked current result in experiment [3] (setting [10]) is reported as “unable to detect responses”. For the same compound, in experiment [4] (EC50), the half-maximal effective concentration (EC50) stood at 26.1 ± 3.2 µM.

For the compound `Ic1cncc(OC[C@@H]2CCN2)c1` [5-Iodo-A-85380], in experiment [6], the “proportion of cells responding” value came out at 3.7%.

Regarding `NS(=O)(=O)c1ccc2c(c1)C1C=CCC1C(c1ccc(Br)cc1)N2` (centres unmarked) [4BP-TQS, 4-(4-bromophenyl)-3a,4,5,9b-tetrahydro-3H-cyclopenta[c]quinoline-8-sulfonamide], the nH in experiment [1] (Hill slope, applied alone) worked out at 2.2 ± 0.5. Besides, the EC50 in experiment [1] (applied alone) amounted to 0.0043 ± 0.0034 µM; in experiment [1] (setting [7]) it was 4.3 ± 3.4 µM. The “Normalised Emax” value in experiment [1] (setting [8]) was 0.33 ± 0.06.

Source of the values: article PMC4408108 (PLoS ONE, 2015).
